Source: ChEMBL document CHEMBL1201862, “PubChem BioAssay data set” (2004)
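A five-concentration, 48-hour dose response in 96-well plates underlies each endpoint, interpolated linearly between surrounding concentrations. GI50 marks 50% less growth.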 Activity calls are given as the source filed them. Cut-off read from the data, not from the text of the source: active = GI50 up to about 1.1 µM and inactive = higher.

Columns and labels:
Assay in all cases: inhibition of tumour cell growth, NCI panel, 48 h
[1] = test system: MDA-MB-231
[2] = test system: UACC-62
[3] = test system: DU-145
[4] = test system: CAKI-1
[5] = test system: SNB-19
[6] = test system: U-251
[7] = test system: HOP-92
[8] = test system: SK-OV-3
[9] = test system: NCI/ADR-RES
[10] = test system: NCI-H23
[11] = test system: OVCAR-4
[12] = test system: SF-295
[13] = test system: ACHN
[14] = test system: IGROV-1
[15] = test system: A498
[16] = test system: MDA-MB-435
[17] = test system: OVCAR-3
[18] = test system: HCC 2998
[19] = test system: NCI-H522

Compound: COc1ccc(C2SC(=N)Nc3c2c(C)nn3C(=O)c2ccccc2O)cc1OC (stereo unspecified)
- GI50 [1]: 7.5 µM (inactive)
- GI50 [2]: 2.64 µM (inactive)
- GI50 [3]: 4.3 µM (inactive)
- GI50 [4]: 6.59 µM (inactive)
- GI50 [5]: 5.42 µM (inactive)
- GI50 [6]: 4.5 µM (inactive)
- GI50 [7]: 1.08 µM (active)
- GI50 [8]: 2.54 µM (inactive)
- GI50 [9]: 5.52 µM (inactive)
- GI50 [10]: 3.52 µM (inactive)
- GI50 [11]: 7.93 µM (inactive)
- GI50 [12]: 5.69 µM (inactive)
- GI50 [13]: 3.91 µM (inactive)
- GI50 [14]: 4.71 µM (inactive)
- GI50 [15]: 5.93 µM (inactive)
- GI50 [16]: 2.81 µM (inactive)
- GI50 [17]: > 10 µM (inactive)

Compound: CC(=O)O[C@H]1C(=O)[C@@]2(C)[C@H]([C@H](OC(=O)c3ccccc3)[C@]3(O)C[C@H](OC(=O)[C@H](O)[C@@H](NC(=O)C(C)(C)C)c4ccccc4)C(C)=C1C3(C)C)[C@]1(OC(C)=O)CO[C@@H]1C[C@@H]2O
- GI50 [1]: 5.93 µM (inactive)
- GI50 [18]: 0.0702 µM (active)
- GI50 [2]: 0.0485 µM (active)
- GI50 [3]: 0.106 µM (active)
- GI50 [4]: 1.56 µM (inactive)
- GI50 [5]: 2.35 µM (inactive)
- GI50 [6]: 0.137 µM (active)
- GI50 [7]: 0.535 µM (active)
- GI50 [8]: 0.0177 µM (active)
- GI50 [19]: 0.0306 µM (active)
- GI50 [9]: > 10 µM (inactive)
- GI50 [10]: 0.075 µM (active)
- GI50 [11]: > 10 µM (inactive)
- GI50 [12]: 0.29 µM (active)
- GI50 [13]: 3.32 µM (inactive)
- GI50 [14]: 0.0476 µM (active)
- GI50 [16]: 0.0158 µM (active)

Compound: c1csc(-c2cc(-c3cccs3)c(-c3ccsc3)s2)c1
- GI50 [1]: > 100 µM (inactive)
- GI50 [18]: 34.2 µM (inactive)
- GI50 [2]: > 100 µM (inactive)
- GI50 [3]: > 100 µM (inactive)
- GI50 [4]: > 100 µM (inactive)
- GI50 [5]: > 100 µM (inactive)
- GI50 [6]: > 100 µM (inactive)
- GI50 [8]: > 100 µM (inactive)
- GI50 [9]: > 100 µM (inactive)
- GI50 [10]: > 100 µM (inactive)
- GI50 [11]: > 100 µM (inactive)
- GI50 [12]: > 100 µM (inactive)
- GI50 [13]: > 100 µM (inactive)
- GI50 [14]: > 100 µM (inactive)
- GI50 [15]: > 100 µM (inactive)
- GI50 [16]: > 100 µM (inactive)

Compound: CC(=O)OC1CC2C(=O)C(=O)C1(C)C2(C)C (stereo unspecified)
- GI50 [1]: > 100 µM (inactive)
- GI50 [18]: > 100 µM (inactive)
- GI50 [2]: > 100 µM (inactive)
- GI50 [3]: > 100 µM (inactive)
- GI50 [5]: > 100 µM (inactive)
- GI50 [6]: > 100 µM (inactive)
- GI50 [7]: 56.6 µM (inactive)
- GI50 [8]: > 100 µM (inactive)
- GI50 [9]: > 100 µM (inactive)
- GI50 [10]: > 100 µM (inactive)
- GI50 [11]: > 100 µM (inactive)
- GI50 [12]: > 100 µM (inactive)
- GI50 [13]: > 100 µM (inactive)
- GI50 [14]: > 100 µM (inactive)
- GI50 [15]: > 100 µM (inactive)
- GI50 [16]: > 100 µM (inactive)
- GI50 [17]: > 100 µM (inactive)

Compound: OC1(c2ccc(-c3ccccc3)cc2)c2ccccc2C2=NCCN21 (stereo unspecified)
- GI50 [1]: 56.1 µM (inactive)
- GI50 [18]: 19.1 µM (inactive)
- GI50 [2]: 20.4 µM (inactive)
- GI50 [3]: > 100 µM (inactive)
- GI50 [4]: 50.6 µM (inactive)
- GI50 [5]: 15.4 µM (inactive)
- GI50 [6]: 37.7 µM (inactive)
- GI50 [7]: 50.4 µM (inactive)
- GI50 [8]: 86.3 µM (inactive)
- GI50 [9]: 29.2 µM (inactive)
- GI50 [10]: 20.1 µM (inactive)
- GI50 [11]: 56.8 µM (inactive)
- GI50 [12]: 52.2 µM (inactive)
- GI50 [13]: 20.6 µM (inactive)
- GI50 [15]: 31.6 µM (inactive)
- GI50 [16]: 32.2 µM (inactive)
- GI50 [17]: 19 µM (inactive)

Compound: CC[C@]1(Cc2ccc(OC)c(OC)c2)C=[N+]([O-])O[C@H](OC2CCCC2(c2ccccc2)c2ccccc2)[C@@H]1OC(=O)C(C)(C)C (stereo partly specified)
- GI50 [1]: 5.56 µM (inactive)
- GI50 [18]: 1.94 µM (inactive)
- GI50 [2]: 3.66 µM (inactive)
- GI50 [3]: 2 µM (inactive)
- GI50 [4]: 4.19 µM (inactive)
- GI50 [5]: 3.84 µM (inactive)
- GI50 [6]: 5.62 µM (inactive)
- GI50 [7]: 4.14 µM (inactive)
- GI50 [8]: 15.2 µM (inactive)
- GI50 [19]: 1.61 µM (inactive)
- GI50 [9]: 2.29 µM (inactive)
- GI50 [10]: 3.6 µM (inactive)
- GI50 [11]: 3.27 µM (inactive)
- GI50 [12]: 3.47 µM (inactive)
- GI50 [13]: 2.33 µM (inactive)
- GI50 [14]: 2.62 µM (inactive)
- GI50 [16]: 2.03 µM (inactive)
- GI50 [17]: 1.55 µM (inactive)

Compound: Nc1ccc2c(O)cc(O)nc2n1
- GI50 [1]: > 100 µM (inactive)
- GI50 [2]: > 100 µM (inactive)
- GI50 [3]: > 100 µM (inactive)
- GI50 [4]: > 100 µM (inactive)
- GI50 [5]: > 100 µM (inactive)
- GI50 [6]: > 100 µM (inactive)
- GI50 [7]: > 100 µM (inactive)
- GI50 [8]: > 100 µM (inactive)
- GI50 [19]: > 100 µM (inactive)
- GI50 [9]: > 100 µM (inactive)
- GI50 [10]: > 100 µM (inactive)
- GI50 [11]: > 100 µM (inactive)
- GI50 [12]: > 100 µM (inactive)
- GI50 [13]: > 100 µM (inactive)
- GI50 [14]: > 100 µM (inactive)
- GI50 [16]: > 100 µM (inactive)

Compound: O=c1[nH]c(=O)n(COC(CO)CO)cc1-c1ccccc1
- GI50 [1]: > 100 µM (inactive)
- GI50 [18]: > 100 µM (inactive)
- GI50 [2]: > 100 µM (inactive)
- GI50 [3]: > 100 µM (inactive)
- GI50 [4]: > 100 µM (inactive)
- GI50 [5]: > 100 µM (inactive)
- GI50 [6]: > 100 µM (inactive)
- GI50 [7]: > 100 µM (inactive)
- GI50 [8]: > 100 µM (inactive)
- GI50 [19]: > 100 µM (inactive)
- GI50 [9]: > 100 µM (inactive)
- GI50 [10]: > 100 µM (inactive)
- GI50 [11]: > 100 µM (inactive)
- GI50 [12]: > 100 µM (inactive)
- GI50 [13]: > 100 µM (inactive)
- GI50 [14]: > 100 µM (inactive)
- GI50 [16]: > 100 µM (inactive)
- GI50 [17]: > 100 µM (inactive)

Compound: Cc1c(C)c(C)c(-n2[nH]c(=O)n(C)c2=O)c(C)c1C
- GI50 [1]: > 100 µM (inactive)
- GI50 [2]: > 100 µM (inactive)
- GI50 [3]: > 100 µM (inactive)
- GI50 [4]: > 100 µM (inactive)
- GI50 [5]: > 100 µM (inactive)
- GI50 [6]: > 100 µM (inactive)
- GI50 [7]: > 100 µM (inactive)
- GI50 [8]: > 100 µM (inactive)
- GI50 [9]: > 100 µM (inactive)
- GI50 [10]: > 100 µM (inactive)
- GI50 [12]: > 100 µM (inactive)
- GI50 [13]: > 100 µM (inactive)
- GI50 [14]: > 100 µM (inactive)
- GI50 [15]: > 100 µM (inactive)
- GI50 [16]: > 100 µM (inactive)
- GI50 [17]: > 100 µM (inactive)

Compound: COc1c2cc(C(C)(C)C)cc1CSCc1cc(C(C)(C)C)cc(c1OC)CCCCC2
- GI50 [1]: 46.8 µM (inactive)
- GI50 [18]: 29.6 µM (inactive)
- GI50 [2]: 29.7 µM (inactive)
- GI50 [3]: 31.8 µM (inactive)
- GI50 [5]: 20.2 µM (inactive)
- GI50 [6]: 27 µM (inactive)
- GI50 [8]: > 50 µM (inactive)
- GI50 [9]: > 50 µM (inactive)
- GI50 [10]: 36.7 µM (inactive)
- GI50 [12]: 17 µM (inactive)
- GI50 [13]: 31.8 µM (inactive)
- GI50 [14]: 21.4 µM (inactive)
- GI50 [15]: 38.6 µM (inactive)
- GI50 [16]: > 50 µM (inactive)
- GI50 [17]: 15.1 µM (inactive)

Compound: CN1C(c2ccccc2)=CC(=O)C(O)=C(c2ccccc2)S1(=O)=O
- GI50 [1]: > 100 µM (inactive)
- GI50 [18]: > 100 µM (inactive)
- GI50 [2]: > 100 µM (inactive)
- GI50 [3]: > 100 µM (inactive)
- GI50 [4]: > 100 µM (inactive)
- GI50 [5]: > 100 µM (inactive)
- GI50 [6]: > 100 µM (inactive)
- GI50 [7]: > 100 µM (inactive)
- GI50 [8]: > 100 µM (inactive)
- GI50 [19]: > 100 µM (inactive)
- GI50 [9]: > 100 µM (inactive)
- GI50 [10]: > 100 µM (inactive)
- GI50 [11]: > 100 µM (inactive)
- GI50 [12]: > 100 µM (inactive)
- GI50 [13]: > 100 µM (inactive)
- GI50 [14]: > 100 µM (inactive)
- GI50 [16]: > 100 µM (inactive)
- GI50 [17]: > 100 µM (inactive)

Compound: C1CSCCSCCS1
- GI50 [1]: > 100 µM (inactive)
- GI50 [18]: > 100 µM (inactive)
- GI50 [2]: > 100 µM (inactive)
- GI50 [3]: > 100 µM (inactive)
- GI50 [5]: > 100 µM (inactive)
- GI50 [6]: > 100 µM (inactive)
- GI50 [7]: > 100 µM (inactive)
- GI50 [8]: > 100 µM (inactive)
- GI50 [19]: > 100 µM (inactive)
- GI50 [9]: > 100 µM (inactive)
- GI50 [10]: > 100 µM (inactive)
- GI50 [11]: > 100 µM (inactive)
- GI50 [12]: > 100 µM (inactive)
- GI50 [14]: > 100 µM (inactive)
- GI50 [16]: > 100 µM (inactive)
- GI50 [17]: > 100 µM (inactive)
